How the values were obtained:
[1] = system: KMS27 xenografts; test: KMS27 multiple myeloma xenograft, tumor growth inhibition and delay; type: in vivo, NSG mice; conditions: 50 mg/kg QD3, PO, single agent
Description: The in vivo therapeutic effect of two CD48-targeting MCL-1 ADCs formulated in Phosphate-Buffered Saline (PBS) was determined in KMS27 multiple myeloma model after intravenous (IV) administration.
KMS27 cells, obtained from JCRB, were cultured in RPMI supplemented with 10% FBS. Cells were resuspended in 50% matrigel (BD Biosciences) and 0.1 ml containing 10×10^6 cells were subcutaneously inoculated into the right flank of female NSG mice, provided by Jax. When tumors reached the appropriate volume, mice were randomized, 6 animals per group, using Easy stat software. Anti-CD48 NY920_CysmAb Fc silent, anti-CD48 NY938_CysmAb Fc silent, anti-CD48 NY920_CysmAb Fc silent_L42-P1 and anti-CD48 NY938_CysmAb Fc silent_L42-P1 (2.5 and/or 5 mg/kg) were injected once IV in PBS in combination with ABT-199 (50 mg/kg, PO for 3 consecutive days=QD3 in PEG/ethanol/phosal). Mice body weight was monitored three times a week and tumor size measured using electronic calipers. Tumor volume was estimated by measuring the minimum and maximum tumor diameters using the formula: (minimum diameter)^2 (maximum diameter)/2. […]
With DTV (Delta Tumor Volume) at Dx, calculated being TV at Dx-TV at Randomization. Tumor Growth Delay (TGD) was calculated as the number of days required for the median tumor volume in each group to reach back the starting tumor volume (at randomization). […]

[2] = system: KMS-21-BM xenografts; test: KMS-21-BM multiple myeloma xenograft, tumor growth inhibition and delay; type: in vivo, NSG mice; conditions: 0.5 mg/kg QD, single agent
Description: The in vivo therapeutic effect of a CD48-targeting MCL-1 ADC formulated in Phosphate-Buffered Saline (PBS) was determined in KMS-21-BM multiple myeloma model after intravenous (IV) administration.
KMS-21-BM cells, obtained from JCRB, were cultured in RPMI supplemented with 10% FBS. Cells were resuspended in 100% matrigel (BD Biosciences) and 0.1 ml containing 10×10^6 cells were subcutaneously inoculated into the right flank of female NSG mice, provided by Jax. When tumors reached the appropriate volume, mice were randomized, 6 animals per group, using Easy stat software. IgG1-Linker-Payload Fc WT, anti-CD48 NY920_CysmAb Fc WT, anti-CD48 NY920_CysmAb Fc WT_L42-P1 (10 and/or 30 mg/kg) and Bortezomib (0.5 mg/kg) were injected, alone or in combination, once IV in PBS and NaCl 0.9%, respectively. Mice body weight was monitored three times a week and tumor size measured using electronic calipers. Tumor volume was estimated by measuring the minimum and maximum tumor diameters using the formula: (minimum diameter)^2 (maximum diameter)/2. Tumor growth inhibition on day 21 was calculated using the formula: […]
With DTV (Delta Tumor Volume) at Dx, calculated being TV at Dx−TV at Randomization. Tumor Growth Delay (TGD) was calculated as the number of days required for the median tumor volume in each group to reach 500 mm^3. […]

[3] = system: NCI-H929, KMS-21 BM and KMS-27 cancer cell lines; test: CellTiter-Glo proliferation assay (Example 7), summary over cell lines; type: cell-based; conditions: read-out: IC50 values, range over representative cancer cell lines
Description: (§1) The CD48 MCL-1 antibody drug conjugates were tested against three endogenous cancer cell lines: NCI-H929 (ATCC No. CRL-9068 cultured in RPMI-1640+10% FBS+0.05 mM 2-mercaptoethanol), KMS-21 BM (JCRB No. JCRB1185 cultured in RPMI-1640+10% FBS) and KMS-27 (JCRB No. JCRB1188 cultured in RPMI-1640+10% FBS).
The ability of the MCL-1 antibody drug conjugates to inhibit cell proliferation and survival was assessed using the Promega CellTiter-Glo® proliferation assay. ADCs were generated generally as described in Example 6. Cell lines were cultured in media that is optimal for their growth at 5% CO2, 37° C. in a tissue culture incubator. Prior to seeding for the proliferation assay, the cells were split at least 2 days before the assay to ensure optimal growth density. On the day of seeding, cell viability and cell density were determined using a cell counter (Vi-Cell XR Cell Viability Analyzer, Beckman Coulter). […] Plates were incubated at 5% CO2, 37° C. for 5 days in a tissue culture incubator, after which cell viability was assessed through the addition of 25 μL of CellTiter Glo® (Promega, cat #G7573), a reagent which lyses cells and measures total adenosine triphosphate (ATP) content. Plates were incubated at room temperature for 10 minutes to stabilize luminescent signals prior to reading using a luminescence reader (EnVision Multilabel Plate Reader, PerkinElmer). […]

[4] = system: KMS-21-BM; test: CellTiter-Glo proliferation assay (Example 7); type: cell-based; conditions: 5 days
Description: as §1
(§2) The ability of the MCL-1 antibody drug conjugates to inhibit cell proliferation and survival was assessed using the Promega CellTiter-Glo® proliferation assay. ADCs were generated generally as described in Example 6. Cell lines were cultured in media that is optimal for their growth at 5% CO2, 37° C. in a tissue culture incubator. Prior to seeding for the proliferation assay, the cells were split at least 2 days before the assay to ensure optimal growth density. On the day of seeding, cell viability and cell density were determined using a cell counter (Vi-Cell XR Cell Viability Analyzer, Beckman Coulter). Cells with higher than 85% viability were seeded in white clear bottom 384-well TC treated plates (Corning cat. #3765). Cells were seeded at a density of 1,000 cells per well in 45 μL of standard growth media. Plates were incubated at 5% CO2, 37° C. overnight in a tissue culture incubator. The next day, free MCL-1 payload (P1), targeting MCL-1 ADCs, and non-targeting isotype (IgG) ADCs were prepared at 10× in standard growth media. The prepared MCL-1 payload (P1) treatment was then added to the cells resulting in final concentrations of 0.005-100 nM and a final volume of 50 uL per well. The prepared CD48 targeting and isotype matched non-targeting control ADC treatments were added to the cells resulting in final concentrations of 0.015-300 nM and a final volume of 50 uL per well. Each drug concentration was tested in quadruplets. Plates were incubated at 5% CO2, 37° C. for 5 days in a tissue culture incubator, after which cell viability was assessed through the addition of 25 μL of CellTiter Glo® (Promega, cat #G7573), a reagent which lyses cells and measures total adenosine triphosphate (ATP) content. Plates were incubated at room temperature for 10 minutes to stabilize luminescent signals prior to reading using a luminescence reader (EnVision Multilabel Plate Reader, PerkinElmer). To evaluate the effect of the drug treatments, luminescent counts from wells containing untreated cells (100% viability) were used to normalize treated samples. A variable slope model was applied to fit a nonlinear regression curve to the data in GraphPad PRISM version 7.02 software. IC50 and Amax values were extrapolated from the resultant curves.

[5] = system: KMS-27; test: CellTiter-Glo proliferation assay (Example 7); type: cell-based; conditions: 5 days
Description: as §1, §2

[6] = system: NCI-H929; test: CellTiter-Glo proliferation assay (Example 7); type: cell-based; conditions: 5 days
Description: as §1, §2

Q: What does the source list for `CC1(C)CCC(CN2CCN(c3ccc(C(=O)NS(=O)(=O)c4ccc(NCC5CCOCC5)c([N+](=O)[O-])c4)c(Oc4cnc5[nH]ccc5c4)c3)CC2)=C(c2ccc(Cl)cc2)C1` [ABT-199, venetoclax]?
A: % TGI (d4) [1]: 120.82%; TGD ([1]; to reach back starting tumor volume): 6.27 days

Q: For `CC(C)C[C@H](NC(=O)[C@H](Cc1ccccc1)NC(=O)c1cnccn1)B(O)O` [Bortezomib], which “% TGI (d21)” value ([2]; IV (once)) is on record?
A: The value was 88.09%.

Q: What about the TGD ([2]; IV, median tumor volume to reach 500 mm^3) of the same compound?
A: Its TGD is 42.53 days.

Q: With `COc1ccccc1-c1nccc(COc2ccccc2C[C@@H](Oc2ncnc3sc(-c4ccc(F)cc4)c(-c4ccc(OCCN5CCN(C)CC5)c(Cl)c4C)c23)C(=O)O)n1` [P1, (2R)-2-[5-[3-chloro-2-methyl-4-[2-(4-methylpiperazin-1-yl)ethoxy]phenyl]-6-(4-fluorophenyl)thieno[2,3-d]pyrimidin-4-yl]oxy-3-[2-[[2-(2-methoxyphenyl)pyrimidin-4-yl]methoxy]phenyl]propanoic acid] as the compound, how does the IC50 [3] read?
A: Its IC50 is 1.16 to 11.2 nM.

Q: And the IC50 ([4]; 120 h)?
A: Its IC50 is 1.16 nM.

Q: And the “Amax (Span)” value [4]?
A: Its value is 100.9.

Q: And the IC50 ([5]; 120 h)?
A: The IC50 was 11.2 nM.

Q: And the “Amax (Span)” value [5]?
A: The value was 99.

Q: And the “Amax (Span)” value [6]?
A: The value was 110.3.

Q: And the IC50 ([6]; Homo sapiens, 120 h)?
A: Its IC50 is 4.73 nM.
